Results as given in patent US10716788B2, “Methods for treating MS using pyrimidine and pyridine compounds with BTK inhibitory activity” (Merck Patent GmbH, priority 2015, dated 2020).

What was measured:
RA models = conditions: 3 mg/kg PO; cited from earlier work
[1] = system: PLP139-151 induced EAE in female SJL mice; assay: PLP139-151 induced EAE in SJL mice (relapsing remitting mouse model of MS); assay type: in vivo; conditions: for relapse activity / relapses: FIG. 2 / FIG. 10
[2] = prophylactic treatment from Day 0 post-induction, 0.3, 1.0, 3 mg/kg PO QD, FIG. 1 / FIG. 9
[3] = prophylactic treatment from Day 0 post-induction, 0.3, 1.0, 3 mg/kg PO QD
[4] = therapeutic dosing from Day 9 post-induction, 1.0, 3, 10 mg/kg PO QD, FIG. 15

Row | Structure (SMILES) | efficacy on RA models (RA models) | number of relapses ([1]; dosing from Day 7 post-induction (before onset of EAE), 1.0 and 10 mg/kg PO QD, FIG. 21) | disease severity (clinical score) [1, 2] | relapse activity / relapses [1, 3] | incidence of disease ([1]; prophylactic treatment from Day 0 post-induction, 0.3, 1.0, 3 mg/kg PO QD, FIG. 10) | disease severity (clinical score) ([1]; semi-therapeutic dosing from Day 7 post-induction (before onset of EAE), 1.0 and 10 mg/kg PO QD, FIG. 20) | disease severity (clinical score) ([1]; therapeutic dosing from Day 9 post-induction, 1.0, 3, 10 mg/kg PO QD, FIG. 14) | relapses [1, 4] | time to first relapse [1, 4] | disease severity (clinical score) ([1]; therapeutic dosing from Day 17 post-induction, 1.0 and 10 mg/kg PO QD, FIG. 18) | number of relapses ([1]; therapeutic dosing from Day 17 post-induction, 1.0 and 10 mg/kg PO QD, FIG. 19) | disease onset ([1]; prophylactic treatment from Day 0 post-induction, 0.3, 1.0, 3 mg/kg PO QD, FIG. 1) | disease severity (clinical score) ([1]; therapeutic treatment, start at remission, 1, 3, 10 mg/kg PO QD, FIG. 3) | relapse activity ([1]; therapeutic treatment, start at remission, 1, 3, 10 mg/kg PO QD, FIG. 4)
1 | C=CC(=O)N1CCC(F)(CNc2ncnc(N)c2-c2ccc(Oc3ccccc3)cc2)CC1 [Compound (2), 1-(4-(((6-amino-5-(4-phenoxyphenyl)pyrimidin-4-yl)amino)methyl)-4-fluoropiperidin-1-yl)prop-2-en-1-one] | efficacious | reduced the number of relapses | significantly decreases disease severity | decreased | decreased incidence of disease | reduced disease severity | reduced disease severity | decreased relapses | prolonged time to first relapse | reduced disease severity | reduced the number of relapses |  |  | 
2 | C=CC(=O)N1CCC(CNc2ncnc(N)c2-c2ccc(Oc3ccccc3)cc2)CC1 [Compound (1), 1-(4-(((6-amino-5-(4-phenoxyphenyl)pyrimidin-4-yl)amino)methyl)piperidin-1-yl)prop-2-en-1-one] |  |  | reduced disease severity | reduced relapse activity |  |  |  |  |  |  |  | delayed onset | reduced disease severity | reduced relapse activity
